Read-outs that look alike come from different tables or passages of the source. Where a SMILES comes first, the peptide text is derived from it. [ ]: non-standard residue; d: D form. Gly(Nα-oleyl) = CCCCCCCC/C=C\CCCCCCCCNCC(=O)O; N(2-ethylhexyl)Gly = CCCCC(CC)CNCC(=O)O; Gly(N-dodecyl) = CCCCCCCCCCCCNCC(=O)O; N(CH(CH2OH)2)Gly = O=C(O)CNC(CO)CO; N(octyl)Gly = CCCCCCCCNCC(=O)O; NDecylGly = CCCCCCCCCCNCC(=O)O
What was measured:
[1] = Zeta potential of delivery vehicles; format: physicochemical; details: Table 5; delivery vehicle, pH 7 buffer; in mV (unit assumed)
Method: (§1) In one particular instance, the size and polydispersity (PDI) of delivery vehicles was measured by dynamic light scattering in PBS using a DynaPro® plate reader III. The zeta potential of delivery vehicles was determined using Nano-ZS™ particle analyzer. Zeta sample was diluted to 30 uM total lipid in a weakly buffered solution of 10 mM HEPES, 10 mM MES, 10 mM ammonium acetate pH 7. Measurements were collected in duplicate for over 30 run with the voltage manually set to […]

[2] = Particle size and polydispersity (PDI) of delivery vehicles by dynamic light scattering; format: physicochemical; details: Table 5; delivery vehicle comprising the peptoid, Formulation D22, fLuc mRNA
Method: The resulting delivery vehicle complexes were evaluated by dynamic light scattering (DLS) to determine the volume average particle size/diameter (nm) and the size polydispersity index (PDI) within the delivery vehicle complex.
Particle size. Particle sizes and size distributions were measured using a Wyatt DynaPro® Plate Reader III. In general, formulated samples were diluted to 2 ng/μL in 100 µL PBS. Data is reported as the hydrodynamic diameter (in nm) of the cumulant fit of the correlation function, and the polydispersity of that measurement.
as §1

[3] = Percent encapsulated mRNA, RiboGreen assay; format: physicochemical; details: Table 5; delivery vehicle comprising the peptoid, Formulation D22, fLuc mRNA
Method: Percent encapsulation. The percentage of mRNA encapsulated within the delivery vehicle complexes containing Fluc mRNA was determined using a modified RiboGreen® assay. In general, formulated mRNA samples were diluted to 500 ng/ml in Tris-EDTA buffer with or without Triton-X™. RiboGreen® (Invitrogen) was added at a 200-fold dilution, and the plate was incubated for 5 minutes. Fluorescence was measured at Ex. […]/Em. 520 nm and encapsulated mRNA was calculated by taking the ratio of fluorescence for non-lysed particles versus lysed particles.
The mRNA concentration and the percentage of encapsulated mRNA were determined using a fluorescence-based Quant-iT™ RiboGreen® RNA Reagent Kit using a literature procedure. To determine the mRNA concentration, delivery vehicles were incubated with 2% Triton™ X-100 for 10 min to release entrapped mRNA, followed by addition of RiboGreen® RNA reagent. The fluorescence intensity of mRNA-RiboGreen® reagent complex (excitation at 485 nm and emission at 530 nm) was detected using a microplate reader. The ratio of fluorescence without and with Triton™ X-100 were used to calculate the percentage of encapsulated mRNA.

[4] = Apparent particle pKa, TNS fluorescence assay; format: physicochemical; details: Table 5; apparent particle pKa of delivery vehicle
Method: The apparent particle pKa was assessed by a TNS fluorescence assay. Briefly, particles were diluted to 130 uM total lipid in TNS buffer ranging in pH 3-11 for 10 minutes with […] of TNS probe. The fluorescence was measured at room temperature in a plate reader ex 320/em 445. Fluorescence intensity was normalized to the minimal and maximal values and the pKa was determined by a 3 parameter fit to determine the half maximum of the curve.

[5] = RBC hemolysis as metric for fusogenicity; format: cell-based; details: sheep red blood cells (RBCs), 5% v/v, Table 5, delivery vehicle, 37° C. 45 min
Method: RBC hemolysis was used as a metric for fusogenicity of LNPs at low pH. […] Particles were diluted to […] total lipid in well with 5% RBC solution and incubated at 37° C. for 45 min. Supernatant was collected and absorbance read on a microplate reader at 425 nm. Fusion was normalized to a fully lysed sample with 2% Triton™ and a buffer-only control. % hemolysis=100*[(ABS T-background)−(ABS sample-background)/(ABS T-background)].

[6] = pH 5, read-out: Hemolysis at pH 5
[7] = pH 7, read-out: Hemolysis at pH 7

| Zeta Potential [1] | PDI [2] | Particle Size (nm) [2] [nm] | % Encapsulation [3] [%] | pKa (TNS) [4] | Compound | hemolysis at 45 min, 150 mM total lipid [5, 6] [%] | hemolysis at 45 min, 150 mM total lipid [5, 7] [%] |
| --- | --- | --- | --- | --- | --- | --- | --- |
| −1.6 | 0.14 | 94.9 | 95.2 | 5.906 | CCCCCCCC/C=C\CCCCCCCCN(CC(=O)N(CCCCCC)CC(=O)N(CCCCCC)CC(=O)N(CCCCCC)CC(=O)N(CCCCCCCC/C=C\CCCCCCCC)CC(=O)N(CCCCCC)CC(=O)N(CCCCCC)CC(=O)N(CCCCCC)CC(N)=O)C(=O)CNC(CO)CO [Compound 9] | 1.1 | 0.1 |
| −2.71 | 0.3 | 122.5 | 97.0 | 6.052 | CCCCCCCCN(CC(N)=O)C(=O)CN(CCCCCC)C(=O)CN(CCCCCC)C(=O)CN(CCCCCC)C(=O)CN(CCCCCC)C(=O)CN(CCCCCC)C(=O)CN(CCCCCC)C(=O)CN(CCCCCCCC)C(=O)CNC(CO)CO [Compound 10] | 1.1 | 0 |
| −5.17 | 0.102 | 122.4 | 82.0 | 5.686 | CCCCCCN(CC(N)=O)C(=O)CN(CC(CC)CCCC)C(=O)CN(CCCCCC)C(=O)CN(CC(CC)CCCC)C(=O)CN(CCCCCC)C(=O)CN(CC(CC)CCCC)C(=O)CN(CCCCCC)C(=O)CN(CC(CC)CCCC)C(=O)CNC(CO)CO (centres unmarked) [Compound 13] | 1.8 | 0.6 |
| −3.14 | Multimodal | 2228.3 | 57.3 | 6.825 | CCCCCCN(CC(N)=O)C(=O)CN(CCCCCC)C(=O)CN(CCCCCC)C(=O)CN(CCCCCC)C(=O)CN(CCCCCC)C(=O)CN(CCCCCC)C(=O)CN(CCCCCC)C(=O)CN(CCCCCC)C(=O)CNC(CO)CO [Compound 14] | 9.1 | 0.2 |
| −8 | 0.111 | 106.6 | 84.5 | 5.909 | CCCCCCCCCCCCN(CC(=O)N(CCCCCC)CC(=O)N(CCCCCC)CC(=O)N(CC(=O)N(CCCCCCCCCCCC)CC(=O)N(CCCCCC)CC(=O)N(CCCCCC)CC(N)=O)CC(CC)CCCC)C(=O)CN(CC(CC)CCCC)C(=O)CNC(CO)CO (centres unmarked) [Compound 15] | 0.9 | 0.6 |
| −17.8 | 0.11 | 96.7 | 50.3 | 5.656 | CCCCCCCCCCCCN(CC(=O)N(CCCCCC)CC(N)=O)C(=O)CN(CCCCCCCCCCCC)C(=O)CN(CC(CC)CCCC)C(=O)CN(CCCCCC)C(=O)CN(CCCCCCCCCCCC)C(=O)CN(CCCCCCCCCCCC)C(=O)CN(CC(CC)CCCC)C(=O)CNC(CO)CO (centres unmarked) [Compound 17] | 2.1 | 0.3 |
| 1.84 | 0.214 | 107.6 | 87.9 | 5.48 | CCCCCCCCCCCCN(CC(=O)N(CCCCCCCCCC)CC(N)=O)C(=O)CN(CCCCCCCCCC)C(=O)CN(CCCCCCCCCC)C(=O)CN(CCCCCCCCCCCC)C(=O)CN(CCCCCCCCCC)C(=O)CNC(CO)CO [Compound 27] (H-[N(CH(CH2OH)2)Gly][NDecylGly][Gly(N-dodecyl)][NDecylGly][NDecylGly][Gly(N-dodecyl)][NDecylGly]-NH2) | 12.4 | 9.1 |
| −6.37 | Multimodal | 2058.2 |  | 4.595 | CCCCCCCCCCN(CC(N)=O)C(=O)CN(CC(CC)CCCC)C(=O)CN(CCCCCCCCCC)C(=O)CN(CCCCCCCCCC)C(=O)CN(CC(CC)CCCC)C(=O)CN(CCCCCCCCCC)C(=O)CNC(CO)CO (centres unmarked) [Compound 43] (H-[N(CH(CH2OH)2)Gly][NDecylGly][N(2-ethylhexyl)Gly][NDecylGly][NDecylGly][N(2-ethylhexyl)Gly][NDecylGly]-NH2) | 1.2 | 0.2 |

The next lines start with the compound.

| Compound | Zeta Potential [1] | PDI [2] | Particle Size (nm) [2] [nm] | % Encapsulation [3] [%] | pKa (TNS) [4] | hemolysis at 45 min, 150 mM total lipid [5, 6] [%] | hemolysis at 45 min, 150 mM total lipid [5, 7] [%] |
| --- | --- | --- | --- | --- | --- | --- | --- |
| CCCCCCCC/C=C\CCCCCCCCN(CC(=O)N(CCCCCCCCCC)CC(=O)N(CCCCCCCC/C=C\CCCCCCCC)CC(=O)N(CCCCCCCCCC)CC(N)=O)C(=O)CNC(CO)CO [Compound 6] | −0.785 | 0.39 | 71.3 | 85.9 | 6.373 | 21.5 | 60.6 |
| CCCCCCCC/C=C\CCCCCCCCN(CC(N)=O)C(=O)CN(CCCCCCCCCC)C(=O)CN(CCCCCCCC/C=C\CCCCCCCC)C(=O)CNC(CO)CO [Compound 7] (H-[N(CH(CH2OH)2)Gly][Gly(Nα-oleyl)][NDecylGly][Gly(Nα-oleyl)]-NH2) | −2.31 | 0.13 | 62.3 | 86.3 | 6.283 | 6.1 | 23.8 |
| CCCCCCCCCCCCN(CC(N)=O)C(=O)CN(CCCCCCCCCCCC)C(=O)CN(CCCCCCCCCCCC)C(=O)CN(CCCCCCCCCCCC)C(=O)CN(CCCCCCCCCCCC)C(=O)CN(CCCCCCCCCCCC)C(=O)CNC(CO)CO [Compound 16] (H-[N(CH(CH2OH)2)Gly][Gly(N-dodecyl)][Gly(N-dodecyl)][Gly(N-dodecyl)][Gly(N-dodecyl)][Gly(N-dodecyl)][Gly(N-dodecyl)]-NH2) | −3.58 | 0.24 | 93.1 | 30.6 | 5.554 | 4.1 | 2.2 |
| CCCCCCCC/C=C\CCCCCCCCN(CC(N)=O)C(=O)CN(CCCCCCCC)C(=O)CN(CCCCCCCC/C=C\CCCCCCCC)C(=O)CNC(CO)CO [Compound 20] (H-[N(CH(CH2OH)2)Gly][Gly(Nα-oleyl)][N(octyl)Gly][Gly(Nα-oleyl)]-NH2) | 3.41 | 0.18 | 65.4 | 70.1 | 5.773 | 16.7 | 33.3 |
| CCCCCCCCCCCCN(CC(N)=O)C(=O)CN(CCCCCCCCCCCC)C(=O)CN(CCCCCCCCCCCC)C(=O)CN(CCCCCCCCCCCC)C(=O)CNC(CO)CO [Compound 21] | 2.7 | 0.262 | 66.4 | 81.2 | 5.406 | 35.8 | 59.5 |
| CCCCCCCCCCCCN(CC(=O)N(CCCCCCCCCC)CC(=O)N(CCCCCCCCCCCC)CC(=O)N(CCCCCCCCCC)CC(N)=O)C(=O)CNC(CO)CO [Compound 22] | 4.24 | 0.179 | 51.5 | 83.3 | 5.888 | 58.9 | 81.5 |
| CCCCC(CC)CN(CC(N)=O)C(=O)CN(CC(CC)CCCC)C(=O)CN(CC(CC)CCCC)C(=O)CN(CC(CC)CCCC)C(=O)CNC(CO)CO (centres unmarked) [Compound 24] | −1.59 | 0.12 | 66.9 | 97.6 | 6.43 | 100 | 99.9 |

From patent US20260083769A1, “2-Aminopropane-1,3-Diol-Capped Cationic Peptoids for Nucleic Acid Delivery” (NUTCRACKER THERAPEUTICS, INC., priority 2022, published 2026)
